Measurements reported in patent publication US20250230155A1 (Vanderbilt University, priority 2021, published 2025).

Biological target: T1, human mAChR M4 (Homo sapiens, UniProt P08173)
T1 construct: expressed in transfected cells
T1 sequence (P08173 1-479): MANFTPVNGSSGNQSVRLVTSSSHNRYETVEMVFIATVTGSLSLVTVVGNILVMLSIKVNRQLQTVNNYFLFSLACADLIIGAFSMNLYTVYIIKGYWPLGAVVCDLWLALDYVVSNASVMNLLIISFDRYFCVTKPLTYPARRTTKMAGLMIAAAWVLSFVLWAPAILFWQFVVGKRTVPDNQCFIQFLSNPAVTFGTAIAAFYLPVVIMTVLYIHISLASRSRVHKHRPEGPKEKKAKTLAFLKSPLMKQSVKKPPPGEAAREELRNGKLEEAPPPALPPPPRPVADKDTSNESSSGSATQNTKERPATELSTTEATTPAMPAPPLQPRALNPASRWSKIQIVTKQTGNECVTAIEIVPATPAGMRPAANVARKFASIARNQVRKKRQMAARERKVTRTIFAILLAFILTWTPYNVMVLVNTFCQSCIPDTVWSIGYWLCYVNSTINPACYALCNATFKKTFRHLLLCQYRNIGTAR
Experiment: mAChR M4 cell-based functional assay (calcium mobilization, CHO-K1 hM4-Gqi5 cells)
Settings: for Emax at 30 µM: CHO-K1, % ACh maximum at 30 μM, human M4; for EC50: positive allosteric modulator activity, increase in the EC20 acetylcholine response, CHO-K1 hM4-Gqi5 cells, read-out: Human M4 EC50
Summary of the method: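 CHO-K1 cells stably expressing human M4 with chimeric Gqi5, loaded with Fluo-4 AM; compounds given as 11-point 1:3 curves and calcium flux read on FDSS at 1 Hz. Acetylcholine EC20 added at 144 s, EC80 at 230 s; agonist, PAM (EC20 potentiation) and antagonist (EC80 inhibition) EC50/Emax from four-parameter fits.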

Row | SMILES | Emax at 30 µM [%] | EC50 [nM]
1 | O=C(NCc1ccncc1)c1ccc(N2CCc3ncc(C(F)(F)F)cc3C2)nn1 [Example 511, N-(pyridin-4-ylmethyl)-6-(3-(trifluoromethyl)-7,8-dihydro-1,6-naphthyridin-6(5H)-yl)pyridazine-3-carboxamide] | 75 | 3160
2 | Cc1c(C#N)nnc(N2CCc3ncc(-c4ccc(N(C)C)nc4)cc3C2)c1C [Example 312, 6-(3-(6-(dimethylamino)pyridin-3-yl)-7,8-dihydro-1,6-naphthyridin-6(5H)-yl)-4,5-dimethylpyridazine-3-carbonitrile] | 50 | 458
3 | Cc1cc(C(=O)N2CC3CC3C2)nnc1N1CCc2ncc(C(F)(F)F)cc2C1 (stereo not drawn) [Example 504, (3-azabicyclo[3.1.0]hexan-3-yl)(5-methyl-6-(3-(trifluoromethyl)-7,8-dihydro-1,6-naphthyridin-6(5H)-yl)pyridazin-3-yl)methanone] | 101 | 3870
4 | Cc1c(C#N)nnc(N2CCc3ncc(-c4ccc(N5CCN(C)CC5)nc4)cc3C2)c1C [Example 328, 4,5-dimethyl-6-(3-(6-(4-methylpiperazin-1-yl)pyridin-3-yl)-7,8-dihydro-1,6-naphthyridin-6(5H)-yl)pyridazine-3-carbonitrile] | 64 | 191
5 | CCn1cc(-c2cnc3c(c2)CN(c2ncc(C#N)cc2C)CC3)cn1 [compound 105, 6-[3-(1-ethylpyrazol-4-yl)-7,8-dihydro-5H-1,6-naphthyridin-6-yl]-5-methyl-pyridine-3-carbonitrile] | 98 | 263
6 | Cc1cc(C#N)nnc1N1CCc2ncc(N3CCC(C)n4nccc43)cc2C1 (stereo not drawn) [Example 383, 5-methyl-6-(3-(7-methyl-6,7-dihydropyrazolo[1,5-a]pyrimidin-4(5H)-yl)-7,8-dihydro-1,6-naphthyridin-6(5H)-yl)pyridazine-3-carbonitrile] | 97 | 171
7 | Cc1c(Cl)nc(C(F)(F)F)nc1N1CCc2ncc(C3CC3)cc2C1 [compound 242, 6-(6-chloro-5-methyl-2-(trifluoromethyl)pyrimidin-4-yl)-3-cyclopropyl-5,6,7,8-tetrahydro-1,6-naphthyridine] | 83 | 1870
8 | Cc1cc(C(=O)NCc2ccccn2)cnc1N1CCc2ncccc2C1 [compound 59, 6-(7,8-dihydro-5H-1,6-naphthyridin-6-yl)-5-methyl-N-(2-pyridylmethyl)pyridine-3-carboxamide] | 68 | 6910
9 | Cc1cc2c(nc1N1CCc3ncc(C(F)(F)F)cc3C1)OCCN(Cc1ccccc1)C2=O [Example 592, 4-benzyl-7-methyl-8-(3-(trifluoromethyl)-7,8-dihydro-1,6-naphthyridin-6(5H)-yl)-3,4-dihydropyrido[3,2-f][1,4]oxazepin-5(2H)-one] | 38 | 292
10 | Cc1c(Cl)nc(C2CC2)nc1N1CCc2ncc(Nc3ccccc3F)cc2C1 [compound 90, 6-(6-chloro-2-cyclopropyl-5-methyl-pyrimidin-4-yl)-N-(2-fluorophenyl)-7,8-dihydro-5H-1,6-naphthyridin-3-amine] | 72 | 7600
11 | Cc1nc(Cl)c(C)c(N2Cc3cc(Nc4ccnn4C)cnc3C(C)(C)C2)n1 [compound 239, 6-(6-chloro-2,5-dimethylpyrimidin-4-yl)-8,8-dimethyl-N-(1-methyl-1H-pyrazol-5-yl)-5,6,7,8-tetrahydro-1,6-naphthyridin-3-amine] | 58 | 911
12 | Cc1cc(C#N)nnc1N1CCc2ncc(Oc3ccccc3F)cc2C1 [Example 396, 6-(3-(2-fluorophenoxy)-7,8-dihydro-1,6-naphthyridin-6(5H)-yl)-5-methylpyridazine-3-carbonitrile] | 87 | 65
